According to patent publication US10925913B2, “Low toxic tripterygium neoglycosides, preparation method and application thereof” (priority 2017, dated 2021):
Entries after “also recorded” stand apart in the source; their conditions may differ.

Tests used:
[1] = test system: podocyte cell line MPCS; experiment: Protection of podocytes from ADM-induced apoptosis; assay type: cell-based, rat
Procedure: Rat immortalized podocyte cell line MPCS is presented by nephrology department of Guangdong provincial hospital of Traditional Chinese Medicine. The treatment methods of […] are presented as follows: Western blot, IFC, qPCR, ELISA and other methods are used to detect the expression levels of inflammation-related proteins, genes and cytokines in different treatment groups. The podocyte cell is temperature sensitive cell, increases at 33° C. RPMI-1640+10% FBS+1% Pen Strep+10 U/mL γ-IFN, and differentiates at 37° C. RPMI-1640+10% FBS+1% Pen Strep medium for 10-14 days. […] The expression of podocaine membrane protein podocine and apoptosis-related gene Bax were detected by flow cytometry using FITC-labeled Annexin V and Propidium iodide (PI) to differentiate early apoptotic cells from late apoptotic cells and dead cells.

[2] = test system: induced T/B lymphocyte; experiment: Specific inhibition experiment: Con A- or LPS-induced T/B lymphocyte increment (MTT); assay type: cell-based, rat; conditions: FIG. 5
Procedure: The pretreatment of lymphocytes in the specific inhibition experiment is the same as above. After lymphocytes inoculated into 96-well culture plates, drug was added. 200 μL of drug was added each to blank control group (culture medium only), T lymphocyte specific increment inducer Con A model group (5 μg/mL, corresponding model group) and B lymphocyte specific increment inducer LPS model group (5 μg/mL, corresponding model group). Con A administration group was firstly added multiple doses of T lymphocyte specific increment inducer Con A 100 μL ([…], corresponding model group) separately, and then added 100 μL of triptriolide (100, 200, 300, 400 μg/mL) with different concentrations separately. In LPS administration group, multiple doses of B lymphocyte specific increment inducer LPS 100 μL ([…], corresponding model group) were added respectively, and 100 μL of triptriolide (100, 200, 300, 400 μg/mL) with different concentrations were added respectively.

[3] = test system: normal T and B lymphocytes; experiment: Immunosuppressive activity: inhibition of normal T/B lymphocyte increment (MTT); assay type: cell-based, rat; conditions: FIG. 4
Procedure: The rats were sacrificed by neck amputation and soaked in 75% ethanol. The spleens of the rats were taken out in an ultra-clean bench, washed in DPBS for 3 times, fully moistened, 200 mesh gauze was placed on a dish (35 mm diameter), it is evenly ground in one direction by a piston of a 10 mL syringe, the spleen was moistened with DPBS while grinding. The collected lymphocyte suspension was centrifuged at 1500 rpm for 3 min, and 7 mL of erythrocyte lysate was added to each spleen suspension. After acting at room temperature for 30 min, the cells were centrifuged at 1500 rpm for 3 min. After discarding supernatant, the cells were washed with DPBS for 3 times to remove excess serum, added with […] of 70% Percoll to the bottom layer of 15 mL centrifuge tube and […] of 40% Percoll to the upper layer of 15 mL centrifuge tube, then centrifuged 800 g at room temperature for 20 min on a horizontal centrifuge.

[4] = test system: rat with ear swelling model; conditions: Zheng Jiarun, et al., 1991; cited from earlier work
[5] = test system: Raw264.7 cells; experiment: Anti-inflammatory activity in LPS-induced Raw264.7 cell inflammation model; assay type: cell-based, rat
Procedure: Raw264.7 37° C., 5% CO2 RPMI-1640+10% FBS+1% Pen Strep. Finally, the cell was cultured in an incubator until 80% of the cells adhere to the wall. The cells in logarithmic growth phase were taken and adjusted to the appropriate cell density in a 96-well plate after digestion with 0.25% trypsin. After adhering to the wall in monolayer, the cell was cultured in a synchronized medium for 12 hours. After entering the quiescent period, except for the blank control group, 1 mL of LPS (1 μg/mL) was used as a modeling agent in other groups to induce the cell inflammation model in the cell in each group. Meanwhile, drug treatment is carried out: 1 mL of culture medium was added to the model group, 1 mL of liquid drug with corresponding concentration was added to the drug administration group (triptolide 50, 100, 150, 200 μg/mL dose group), and 2 ml of culture medium was directly added to the blank control group. Western blot, qPCR, ELISA and other methods were used to detect the expression levels of inflammation-related proteins, genes, cytokines, the expressions of NF-κB transcription-related factors, and the expressions of IL-6, IL-10, TNF-α and other inflammatory cytokines in different treatment groups.

CC(C)[C@]1(O)[C@H](O)[C@@H]2O[C@]23[C@]2(O[C@H]2C[C@H]2C4=C(CC[C@@]23C)C(=O)OC4)[C@@H]1O [triptriolide]
apoptosis of podocytes ([1]; 0.8 μg/mL ADM apoptosis model, FIGS. 9 to 11): attenuated | apoptosis of podocytes at high concentration ([1]; 0.8 μg/mL ADM, high concentration): upward trend | immunosuppressive effect ([2]; Con A-induced T vs LPS-induced B lymphocytes): lower immunosuppressive effect; also recorded: on T lymphocytes is significantly higher than that on B lymphocytes | cell activity of Con A- / LPS-induced lymphocytes ([2]; different concentrations, 24 h, MTT): higher than that of the blank control group, but lower than that of the model group | inhibiting increment of normal T and B lymphocytes in vitro ([3]; 50, 100, 150, 200 μg/mL, 24 h, MTT): dose-dependent | cell activity of normal T and B lymphocytes ([3]; each administration group, p<0.05): significantly lower than that of the control group and model group | anti-inflammatory activity [4]: weak anti-inflammatory activity | immunosuppressive activity [4]: no immunosuppressive activity | effects of inflammatory factors TNF-α and IL-10 ([5]; FIGS. 7 and 8): effectively reduce | cytokine secretion in LPS-induced inflammatory injury model ([5]; LPS 1 μg/mL, FIG. 6): can improve cytokine secretion | expression of IL-10 ([5]; at high concentration): can be increased
